Tested on: synovial sarcoma cell lines
Assay: testing against a panel of synovial sarcoma cell lines (antiproliferation)
Assay type: cell-based
Details: FIG. 1

O=C(CCOCCOCCOCCNc1cccc2c1C(=O)N(C1CCC(=O)NC1=O)C2=O)NCCc1ccc(N2C[C@@H]3C[C@H]2CN3/C=C/C(=O)c2ccccc2O)cc1 (stereo partly drawn) [Compound E1, 3-(2-(2-(2-((2-(2,6-dioxopiperidin-3-yl)-1,3-dioxoisoindolin-4-yl)amino)ethoxy)ethoxy)ethoxy)-N-(4-((1S,4S)-5-((E)-3-(2-hydroxyphenyl)-3-oxoprop-1-en-1-yl)-2,5-diazabicyclo[2.2.1]heptan-2-yl)phenethyl)propanamide]
antiproliferation effect against synovial sarcoma lines: antiproliferation effect
